Measured values taken from PubChem BioAssay (NCI).
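Dose response: 5 concentrations. Exposure: 48 h. Format: 96-well plates. Endpoint: linear interpolation; highest concentration if not reached. GI50 = concentration required for 50% inhibition of growth. TGI: total growth inhibition.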

Tests used:
Experiment in all cases: inhibition of tumour cell growth, NCI panel, 48 h
SK-MEL-2 melanoma = test system: SK-MEL-2 melanoma
HOP-92 NSCLC = test system: HOP-92 NSCLC
A498 renal = test system: A498 renal
K-562 leukemia = test system: K-562 leukemia
CCRF-CEM leukemia = test system: CCRF-CEM leukemia
MOLT-4 leukemia = test system: MOLT-4 leukemia
SW-620 colon = test system: SW-620 colon
SNB-19 CNS = test system: SNB-19 CNS
OVCAR-4 ovarian = test system: OVCAR-4 ovarian
SR leukemia = test system: SR leukemia

| Compound | TGI (SK-MEL-2 melanoma) | TGI (HOP-92 NSCLC) | TGI (A498 renal) | TGI (K-562 leukemia) | TGI (CCRF-CEM leukemia) | TGI (MOLT-4 leukemia) | TGI (SW-620 colon) | TGI (SNB-19 CNS) | TGI (OVCAR-4 ovarian) | TGI (SR leukemia) | GI50 (SK-MEL-2 melanoma) | GI50 (HOP-92 NSCLC) | GI50 (SNB-19 CNS) | GI50 (A498 renal) | GI50 (K-562 leukemia) | GI50 (CCRF-CEM leukemia) | GI50 (OVCAR-4 ovarian) | GI50 (MOLT-4 leukemia) | GI50 (SW-620 colon) |
| --- | --- | --- | --- | --- | --- | --- | --- | --- | --- | --- | --- | --- | --- | --- | --- | --- | --- | --- | --- |
| Cc1nc(-c2cccnc2)sc1C(=O)/C=C/c1cccc([N+](=O)[O-])c1 | > 100 µM | > 100 µM | > 100 µM | > 100 µM | > 100 µM | > 100 µM | > 100 µM |  |  |  |  |  |  |  |  |  |  |  |  |
| Cc1cc(C)n(C2=NS(=O)(=O)c3ccccc3N2C)n1 | > 100 µM | > 100 µM | > 100 µM | > 100 µM | > 100 µM | > 100 µM | > 100 µM | > 100 µM | > 100 µM |  |  |  |  |  |  |  |  |  |  |
| CCOC(=O)C1(Cc2ccc3ccccc3c2)CCCCC(=O)N1 (centres undefined) |  | 59.2 µM |  | > 100 µM | > 100 µM | > 100 µM | > 100 µM | > 100 µM | > 100 µM |  |  |  |  |  |  |  |  |  |  |
| O=C1C2=C(CCC2)Nc2cccc3ncn1c23 | > 100 µM |  |  | > 100 µM | > 100 µM | > 100 µM | > 100 µM | > 100 µM |  | > 100 µM |  |  |  |  |  |  |  |  |  |
| COc1ccccc1NC(=O)/C(=C/c1ccccc1)C(C)=O | > 100 µM | > 100 µM |  | > 100 µM | > 100 µM | > 100 µM | > 100 µM | > 100 µM | > 100 µM | > 100 µM |  |  |  |  |  |  |  |  |  |
| O=C1/C(=C/c2ccc([N+](=O)[O-])cc2)COc2ccc(O)cc21 | > 100 µM | > 100 µM | > 100 µM | > 100 µM | 3.29 µM | 37.6 µM | 3.3 µM | 30.8 µM | > 100 µM |  | 73 µM | 38.6 µM | 4.29 µM | 4.52 µM | 2.28 µM | 0.647 µM | 11.3 µM | 3.11 µM | 1.5 µM |
| Cc1c2ccncc2c(C)c2c1[nH]c1ccc(O)c(OCC(F)(F)F)c12 | 22.9 µM | 16.5 µM | 37.5 µM | 33.9 µM | 7.18 µM | 6.04 µM | 19.2 µM | 9.17 µM | 14 µM |  |  |  |  |  |  |  |  |  |  |
| CCOC(=O)N1CCN(CCCCCOc2ccccc2C2CCCCC2)CC1 |  | 17.5 µM | 26.9 µM | 10.9 µM | 18.4 µM | 13 µM | 9.81 µM | 22.6 µM | 22.2 µM |  |  | 4.07 µM | 10.7 µM | 13.5 µM | 1.97 µM | 4.42 µM | 9.2 µM | 2.92 µM | 3.08 µM |
| CC(C)(C)NCC(COc1ccc([N+](=O)[O-])cc1)OP(c1ccccc1)c1ccccc1 (centres undefined) | > 100 µM |  | > 100 µM | > 100 µM | 79.2 µM | 49.6 µM | > 100 µM | > 100 µM |  |  |  |  |  |  |  |  |  |  |  |
| N#C/C(=C1\SC(N=Nc2ccc(Cl)cc2)C(=O)N1c1ccccc1)c1nc2ccccc2[nH]1 (centres undefined) | 62 µM | 51.9 µM | 58.4 µM | 41 µM | 47.4 µM |  | > 100 µM | 89.6 µM | 55.8 µM |  |  |  |  |  |  |  |  |  |  |
| CC(=O)[CH-]C(=O)c1ccccc1.CC(=O)[CH-]C(=O)c1ccccc1.CC1(C)OCC(C2OC3OC(C)(C)OC3C2[O-])O1.CC[O-].[Ti+4] (centres undefined) | 27.8 µM | 20.6 µM | 28.6 µM | 62.6 µM | > 100 µM | 82.1 µM | 44.5 µM | 25.4 µM | 32.2 µM |  | 12 µM | 6.84 µM | 12.4 µM | 15.3 µM | 15.3 µM | 4.71 µM | 14.2 µM | 15.5 µM | 15.6 µM |
| COC(=O)C1C(=O)N(CCc2c[nH]c3ccccc23)C[C@@H]2CCC(=O)C[C@H]12 (some centres undefined) | > 100 µM | > 100 µM | > 100 µM | > 100 µM | > 100 µM | > 100 µM | > 100 µM | > 100 µM | > 100 µM |  |  |  |  |  |  |  |  |  |  |
| c1ccc(-c2nc(N3CCCNCC3)c3nc(-c4ccccc4)oc3n2)cc1 | 3.49 µM |  | 2.3 µM |  |  |  | 3.47 µM | 3.34 µM | 3.67 µM |  | 1.83 µM |  | 1.71 µM | 1.07 µM |  |  | 1.98 µM |  | 1.76 µM |
| O=C(/C=C/c1cccc(O)c1)c1cccc(-n2cc(-c3ccc4ccccc4c3)[nH]c2=O)c1 | 7.97 µM | 8.69 µM |  | 4.88 µM | > 100 µM | 5.24 µM | 0.605 µM | 4.13 µM |  |  | 2.31 µM | 0.518 µM | 1.32 µM |  | 1.43 µM | 2.03 µM |  | 1.27 µM | 0.223 µM |
| N.N.N.N.N.O=S(=O)([O-])S(=O)(=O)[O-].[Co+3] | > 100 µM | > 100 µM | > 100 µM | > 100 µM | > 100 µM | > 100 µM | > 100 µM | > 100 µM | > 100 µM |  | > 100 µM | > 100 µM | > 100 µM | > 100 µM | > 100 µM | > 100 µM | > 100 µM | > 100 µM | > 100 µM |
| CC(C)[O-].CC(C)[O-].O=c1cccccc1[O-].O=c1cccccc1[O-].[Ti+4] | > 100 µM | 90.8 µM |  | > 100 µM | > 100 µM | > 100 µM | > 100 µM | > 100 µM | > 100 µM | > 100 µM |  |  |  |  |  |  |  |  |  |
| O=C(CC1(O)C(=O)Nc2c(Cl)ccc(Cl)c21)c1ccc(Cl)cc1Cl (centres undefined) | 48.9 µM | 49.6 µM | 42.5 µM |  |  |  | 56.6 µM | > 100 µM | 23.3 µM |  |  |  |  |  |  |  |  |  |  |
| COc1cc(C2c3cc4c(cc3[C@@H](Nc3ccc5c(c3)OCCO5)C3COC(=O)[C@H]23)OCO4)cc(OC)c1O (some centres undefined) | 12 µM | 4.64 µM | 1.42 µM | 16.4 µM | 2.28 µM | 1.02 µM | > 79.1 µM | 66.6 µM | 29.3 µM |  |  |  |  |  |  |  |  |  |  |
| CCOC(=O)c1c(SCCN2CCOCC2)n(-c2ccccc2)c(=S)n(-c2ccccc2)c1=O | > 100 µM | > 100 µM |  | 38 µM | 99 µM | 92.5 µM | 41.6 µM | > 100 µM | > 100 µM | 48.2 µM |  |  |  |  |  |  |  |  |  |
